8 molecules from publication PMC11522292, “TamGen: drug design with target-aware molecule generation through a chemical language model” (Nature Communications, 2024) can be followed below.

In experiment [1] the target is T1, ClpP1P2 complex in Mtb (Mycobacterium tuberculosis, UniProt P9WPC5). Nature of the experiment: ClpP1P2 peptidase activity assay, dose-response and IC50 determination. The class given is biochemical. Here is the method:
(§1) ClpP1P2 complex in Mtb can catalyze the hydrolysis of small peptides. Following previous protocols, we measure the in vitro inhibition of ClpP peptidase activity by monitoring the cleavage of fluorogenic peptide Ac-Pro-Lys-Met-AMC[65]–[67].
(§2) The solution is pre-incubated at room temperature for 2 hours. Then, 20 μL substrate buffer with Ac-Pro-Lys-Met-AMC is added (final concentration of Ac-Pro-Lys-Met-AMC is 10 μM; reaction buffer is the same with the above). Fluorescence (Ex/Em: 380/ 440 nm) is recorded for 120 min at 37 °C.
To determine IC50, candidate inhibitors are assayed at 9 or 10 gradient concentrations. […] IC50 is determined by the change of recorded fluorescence (as RFU) and gradient dilution of inhibitors concentration. Non-linear fit (log(inhibitor) vs. normalized response) is used for IC50 curve fitting.

In experiment [2] the target is T1, ClpP1P2 complex in Mtb. Nature of the experiment: ClpP1P2 peptidase activity assay, single-dose response. The class given is biochemical. The conditions noted are these: read-out: Inhibition rate relative to Bortezomib. As to the method: as §1, §2
Where [3] appears, read: source data Figure4b, screening hits.
The mark [4] stands for this setting: source data Figure4b, synthesized compounds.

T1 sequence (P9WPC5 whole entry, looked up, one chain of several): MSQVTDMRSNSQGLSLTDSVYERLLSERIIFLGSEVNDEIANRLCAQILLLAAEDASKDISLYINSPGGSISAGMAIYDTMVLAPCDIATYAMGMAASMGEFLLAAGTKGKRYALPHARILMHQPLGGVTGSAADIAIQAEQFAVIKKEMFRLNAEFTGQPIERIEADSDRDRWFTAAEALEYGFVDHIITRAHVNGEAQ

On to `O=C(Nc1ccc(F)cc1)Nc1ccc(Br)c(C(F)(F)F)c1` [Analog-001], for which inhibition in experiment [1] (setting [3]) was half-maximal at 17.2 µM (IC50).
`O=C(Nc1ccccc1F)Nc1ccccc1NC(=O)c1ccccc1Cl` [Analog-002] returned an IC50 in experiment [1] (setting [3]) of 19.9 µM.
Consider `NS(=O)(=O)c1ccc(NC(=O)Nc2cc(Cl)cc(Cl)c2)cc1` [Analog-003], for which, in experiment [1] (setting [3]), the concentration for half-maximal inhibition (IC50) stood at 10.1 µM. For the same molecule, the inhibition at 20 µM in experiment [2] was 48%.
For `Oc1c(Cc2ccccc2)ccc2ccccc12` [Analog-004], the IC50 in experiment [1] (setting [3]) came out at 19.6 µM.
As for `CN(C)S(=O)(=O)c1ccc(C(=O)N2C(=O)c3cccc(N)c3C2=O)cc1` [Analog-005], the IC50 in experiment [1] (Mtb ClpP, dose-response assay, Fig. 4b and text) came to 1.9 µM; in experiment [1] (setting [3]), 1.88 µM.
The molecule `NS(=O)(=O)c1ccc(NC(=O)Nc2ccc(Cl)c(C(F)(F)F)c2)cc1` [Syn-A003-01] came in with an IC50 in experiment [1] (setting [4]) of 20.3 µM.
In experiment [1] (setting [4]), `Cc1ccc(C(=O)N2C(=O)c3ccccc3C2=O)cc1` [Syn-A005-01] gave an IC50 of 5.34 µM.
As for `CN(C)S(=O)(=O)c1ccc(C(=O)N2C(=O)c3ccccc3C2=O)cc1` [Syn-A005-02], in experiment [1] (setting [4]), inhibition was half-maximal at 3.4 µM (IC50).
